How the values were obtained:
[1] = biological target: Death-associated protein kinase 3 (Homo sapiens) (UniProt O43293); assay: Residual activity of DAPK3 at 0.1 uM by microplate scintillation counting
[2] = biological target: T1, Serine/threonine-protein kinase D2 (Homo sapiens) (UniProt Q9BZL6); assay: Residual activity of PRKD2 at 10 uM by microplate scintillation counting
T1 sequence (whole entry): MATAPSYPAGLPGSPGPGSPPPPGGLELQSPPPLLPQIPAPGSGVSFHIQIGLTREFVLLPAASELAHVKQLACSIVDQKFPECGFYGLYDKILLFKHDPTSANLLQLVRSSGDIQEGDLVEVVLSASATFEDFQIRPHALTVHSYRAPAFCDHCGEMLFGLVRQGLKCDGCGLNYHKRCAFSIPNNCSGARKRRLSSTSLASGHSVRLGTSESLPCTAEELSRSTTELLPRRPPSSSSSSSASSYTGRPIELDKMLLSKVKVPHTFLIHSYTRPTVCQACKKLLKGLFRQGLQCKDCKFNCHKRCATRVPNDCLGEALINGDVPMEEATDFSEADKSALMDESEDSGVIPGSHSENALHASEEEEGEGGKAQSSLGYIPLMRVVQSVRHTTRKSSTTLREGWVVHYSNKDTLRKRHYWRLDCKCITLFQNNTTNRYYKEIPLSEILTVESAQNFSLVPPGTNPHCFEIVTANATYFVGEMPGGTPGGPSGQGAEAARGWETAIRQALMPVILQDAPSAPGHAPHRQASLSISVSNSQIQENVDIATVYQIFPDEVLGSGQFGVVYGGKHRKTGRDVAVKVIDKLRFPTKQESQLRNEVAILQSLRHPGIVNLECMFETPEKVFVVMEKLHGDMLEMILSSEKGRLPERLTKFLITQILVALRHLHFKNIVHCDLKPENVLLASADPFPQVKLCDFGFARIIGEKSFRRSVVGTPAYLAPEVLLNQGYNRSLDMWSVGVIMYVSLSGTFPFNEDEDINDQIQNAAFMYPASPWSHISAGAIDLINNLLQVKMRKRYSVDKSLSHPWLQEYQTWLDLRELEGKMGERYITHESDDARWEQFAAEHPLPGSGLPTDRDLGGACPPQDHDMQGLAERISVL

[3] = biological target: NT-3 growth factor receptor (Homo sapiens) (UniProt Q16288); assay: Residual activity of TRK-C at 0.1 uM by microplate scintillation counting
[4] = biological target: Ephrin type-A receptor 5 (Homo sapiens) (UniProt P54756); assay: Residual activity of EPHA5 at 1 uM by microplate scintillation counting
[5] = biological target: Serine/threonine-protein kinase PLK2 (Homo sapiens) (UniProt Q9NYY3); assay: Residual activity of SNK at 1 uM by microplate scintillation counting
[6] = biological target: T2, Tyrosine-protein kinase JAK3 (Homo sapiens) (UniProt P52333); assay: Residual activity of JAK3 at 1 uM by microplate scintillation counting
T2 sequence (whole entry): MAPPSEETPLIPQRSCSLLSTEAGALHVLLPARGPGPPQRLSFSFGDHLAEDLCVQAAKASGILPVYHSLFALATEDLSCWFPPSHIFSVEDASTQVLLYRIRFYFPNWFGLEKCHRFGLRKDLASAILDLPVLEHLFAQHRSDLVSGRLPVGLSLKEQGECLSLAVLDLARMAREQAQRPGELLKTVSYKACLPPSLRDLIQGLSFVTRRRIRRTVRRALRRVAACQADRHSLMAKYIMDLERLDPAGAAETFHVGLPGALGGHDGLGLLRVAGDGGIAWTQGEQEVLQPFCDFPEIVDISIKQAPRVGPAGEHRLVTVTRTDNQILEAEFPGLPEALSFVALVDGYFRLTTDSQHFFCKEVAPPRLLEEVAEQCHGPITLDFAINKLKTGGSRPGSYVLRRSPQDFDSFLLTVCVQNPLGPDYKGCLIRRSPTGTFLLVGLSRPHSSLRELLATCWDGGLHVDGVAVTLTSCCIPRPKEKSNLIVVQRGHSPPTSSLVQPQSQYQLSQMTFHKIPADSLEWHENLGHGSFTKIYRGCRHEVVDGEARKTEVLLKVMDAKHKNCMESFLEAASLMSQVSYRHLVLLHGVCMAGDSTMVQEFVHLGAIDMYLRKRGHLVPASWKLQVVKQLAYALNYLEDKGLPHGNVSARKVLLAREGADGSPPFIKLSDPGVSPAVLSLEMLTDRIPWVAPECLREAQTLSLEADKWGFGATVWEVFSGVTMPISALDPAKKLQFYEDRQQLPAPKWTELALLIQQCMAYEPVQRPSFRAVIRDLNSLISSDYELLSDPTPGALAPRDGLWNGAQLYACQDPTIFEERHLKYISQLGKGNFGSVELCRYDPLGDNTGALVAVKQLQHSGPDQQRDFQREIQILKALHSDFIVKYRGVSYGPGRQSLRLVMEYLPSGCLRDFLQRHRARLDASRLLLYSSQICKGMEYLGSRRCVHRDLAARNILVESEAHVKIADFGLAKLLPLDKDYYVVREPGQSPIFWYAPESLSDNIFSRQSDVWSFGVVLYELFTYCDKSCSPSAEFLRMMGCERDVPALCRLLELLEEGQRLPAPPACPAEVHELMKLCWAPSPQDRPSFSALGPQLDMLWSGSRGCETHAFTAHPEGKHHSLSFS

[7] = biological target: Myosin light chain kinase 2, skeletal/cardiac muscle (Homo sapiens) (UniProt Q9H1R3); assay: Residual activity of MYLK2 at 10 uM by microplate scintillation counting
[8] = biological target: Macrophage-stimulating protein receptor (Homo sapiens) (UniProt Q04912); assay: Residual activity of RON at 0.1 uM by microplate scintillation counting
[9] = biological target: PAS domain-containing serine/threonine-protein kinase (Homo sapiens) (UniProt Q96RG2); assay: Residual activity of PASK at 10 uM by microplate scintillation counting
[10] = biological target: MAP kinase-activated protein kinase 3 (Homo sapiens) (UniProt Q16644); assay: Residual activity of MAPKAPK3 at 0.1 uM by microplate scintillation counting
MAP kinase-activated protein kinase 3 (Homo sapiens), sequence (Q16644 whole entry, looked up): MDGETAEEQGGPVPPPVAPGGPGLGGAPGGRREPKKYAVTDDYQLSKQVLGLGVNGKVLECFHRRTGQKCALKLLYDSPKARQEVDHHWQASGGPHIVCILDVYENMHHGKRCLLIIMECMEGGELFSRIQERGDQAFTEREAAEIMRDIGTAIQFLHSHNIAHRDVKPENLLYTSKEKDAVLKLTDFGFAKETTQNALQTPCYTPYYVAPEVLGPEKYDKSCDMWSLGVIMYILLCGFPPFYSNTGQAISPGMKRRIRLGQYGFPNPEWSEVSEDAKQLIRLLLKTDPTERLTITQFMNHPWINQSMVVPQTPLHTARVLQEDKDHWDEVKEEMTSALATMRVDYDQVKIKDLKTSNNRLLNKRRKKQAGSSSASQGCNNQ

Serine/threonine-protein kinase PLK2 (Homo sapiens), sequence (Q9NYY3 whole entry, looked up): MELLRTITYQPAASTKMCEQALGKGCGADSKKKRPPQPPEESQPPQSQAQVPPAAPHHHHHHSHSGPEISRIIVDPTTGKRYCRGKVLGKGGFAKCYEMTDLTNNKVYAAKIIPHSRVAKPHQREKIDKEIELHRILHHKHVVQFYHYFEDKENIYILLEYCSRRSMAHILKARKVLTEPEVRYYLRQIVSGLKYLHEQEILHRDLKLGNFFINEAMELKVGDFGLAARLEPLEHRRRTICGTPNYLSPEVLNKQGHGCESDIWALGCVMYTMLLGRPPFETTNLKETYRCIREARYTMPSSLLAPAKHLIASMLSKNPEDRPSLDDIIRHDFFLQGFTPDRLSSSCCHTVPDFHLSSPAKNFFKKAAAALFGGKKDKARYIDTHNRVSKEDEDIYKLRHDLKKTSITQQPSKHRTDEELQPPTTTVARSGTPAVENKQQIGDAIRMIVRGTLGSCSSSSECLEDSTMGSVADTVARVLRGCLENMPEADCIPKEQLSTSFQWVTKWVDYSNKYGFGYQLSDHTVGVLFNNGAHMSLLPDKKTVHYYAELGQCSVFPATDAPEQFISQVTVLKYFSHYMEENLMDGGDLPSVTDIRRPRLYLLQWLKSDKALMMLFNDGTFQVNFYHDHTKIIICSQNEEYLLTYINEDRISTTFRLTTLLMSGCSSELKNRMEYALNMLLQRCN
Death-associated protein kinase 3 (Homo sapiens), sequence (O43293 whole entry, looked up): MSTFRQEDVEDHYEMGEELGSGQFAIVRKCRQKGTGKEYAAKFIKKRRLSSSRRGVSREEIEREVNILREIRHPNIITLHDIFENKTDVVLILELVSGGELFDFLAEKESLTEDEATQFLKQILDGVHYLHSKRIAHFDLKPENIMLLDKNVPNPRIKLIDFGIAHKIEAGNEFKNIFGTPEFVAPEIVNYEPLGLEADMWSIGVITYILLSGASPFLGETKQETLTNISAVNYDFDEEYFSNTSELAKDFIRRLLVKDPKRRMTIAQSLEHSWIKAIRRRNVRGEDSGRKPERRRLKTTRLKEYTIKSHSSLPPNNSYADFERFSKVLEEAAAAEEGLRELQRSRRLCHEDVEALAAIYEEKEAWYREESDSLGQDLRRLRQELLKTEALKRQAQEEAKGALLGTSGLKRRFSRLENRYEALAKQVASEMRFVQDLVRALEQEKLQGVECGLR
NT-3 growth factor receptor (Homo sapiens), sequence (Q16288 32-839 limits assumed): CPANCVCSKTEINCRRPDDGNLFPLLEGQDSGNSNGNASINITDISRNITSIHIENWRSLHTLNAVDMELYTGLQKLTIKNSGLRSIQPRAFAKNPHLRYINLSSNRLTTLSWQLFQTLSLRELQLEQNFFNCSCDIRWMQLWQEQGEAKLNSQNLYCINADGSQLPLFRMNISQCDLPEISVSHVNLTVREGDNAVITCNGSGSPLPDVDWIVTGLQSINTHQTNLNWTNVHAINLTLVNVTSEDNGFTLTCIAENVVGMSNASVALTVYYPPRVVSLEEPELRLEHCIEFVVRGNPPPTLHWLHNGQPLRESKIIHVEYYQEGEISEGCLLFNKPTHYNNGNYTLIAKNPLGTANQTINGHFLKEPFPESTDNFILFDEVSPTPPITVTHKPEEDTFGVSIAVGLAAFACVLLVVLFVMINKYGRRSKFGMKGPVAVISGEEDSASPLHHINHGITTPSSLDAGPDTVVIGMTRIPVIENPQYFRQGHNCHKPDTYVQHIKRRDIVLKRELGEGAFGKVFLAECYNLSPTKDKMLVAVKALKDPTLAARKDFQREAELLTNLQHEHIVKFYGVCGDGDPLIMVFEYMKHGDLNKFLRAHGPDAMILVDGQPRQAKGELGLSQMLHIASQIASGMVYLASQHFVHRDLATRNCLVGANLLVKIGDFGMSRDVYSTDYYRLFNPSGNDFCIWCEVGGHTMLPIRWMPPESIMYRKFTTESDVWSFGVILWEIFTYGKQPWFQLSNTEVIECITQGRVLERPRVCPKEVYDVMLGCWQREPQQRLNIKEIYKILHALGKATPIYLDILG
Macrophage-stimulating protein receptor (Homo sapiens), sequence (Q04912 25-304 limits assumed): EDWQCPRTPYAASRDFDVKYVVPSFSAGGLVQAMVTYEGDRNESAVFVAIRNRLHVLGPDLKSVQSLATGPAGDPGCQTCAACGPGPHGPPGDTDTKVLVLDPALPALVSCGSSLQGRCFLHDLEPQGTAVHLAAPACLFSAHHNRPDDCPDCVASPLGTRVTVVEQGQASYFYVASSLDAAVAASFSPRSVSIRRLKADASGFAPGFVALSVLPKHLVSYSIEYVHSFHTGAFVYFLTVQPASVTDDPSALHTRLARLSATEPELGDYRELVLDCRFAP
Macrophage-stimulating protein receptor (Homo sapiens), sequence (Q04912 310-1400 limits assumed): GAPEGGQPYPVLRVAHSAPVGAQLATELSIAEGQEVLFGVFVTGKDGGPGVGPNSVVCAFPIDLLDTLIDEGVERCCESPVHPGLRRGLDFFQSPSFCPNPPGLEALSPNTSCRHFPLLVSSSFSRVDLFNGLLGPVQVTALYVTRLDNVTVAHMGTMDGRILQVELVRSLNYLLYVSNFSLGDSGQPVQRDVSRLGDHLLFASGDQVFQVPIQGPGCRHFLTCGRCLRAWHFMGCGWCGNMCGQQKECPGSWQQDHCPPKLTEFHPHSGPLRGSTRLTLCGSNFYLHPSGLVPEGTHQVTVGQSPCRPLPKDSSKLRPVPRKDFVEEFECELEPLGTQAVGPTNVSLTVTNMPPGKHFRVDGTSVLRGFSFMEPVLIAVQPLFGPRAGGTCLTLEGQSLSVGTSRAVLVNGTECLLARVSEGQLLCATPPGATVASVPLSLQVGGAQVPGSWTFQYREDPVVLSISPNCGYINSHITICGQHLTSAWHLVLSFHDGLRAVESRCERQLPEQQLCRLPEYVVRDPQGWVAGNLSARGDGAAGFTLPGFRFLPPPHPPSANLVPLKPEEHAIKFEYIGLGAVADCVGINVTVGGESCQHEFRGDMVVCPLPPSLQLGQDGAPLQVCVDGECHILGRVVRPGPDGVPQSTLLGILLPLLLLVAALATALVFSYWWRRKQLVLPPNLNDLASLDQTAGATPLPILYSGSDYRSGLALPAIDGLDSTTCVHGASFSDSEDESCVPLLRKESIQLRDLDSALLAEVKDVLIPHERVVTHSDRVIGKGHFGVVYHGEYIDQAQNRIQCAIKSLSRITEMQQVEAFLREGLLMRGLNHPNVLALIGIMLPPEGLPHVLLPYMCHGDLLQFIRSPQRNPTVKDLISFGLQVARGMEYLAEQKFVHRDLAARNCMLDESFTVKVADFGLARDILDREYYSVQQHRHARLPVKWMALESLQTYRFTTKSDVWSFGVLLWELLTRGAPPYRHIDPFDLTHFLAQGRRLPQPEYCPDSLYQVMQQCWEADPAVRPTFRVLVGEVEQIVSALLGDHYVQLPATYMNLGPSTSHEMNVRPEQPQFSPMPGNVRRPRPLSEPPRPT
Ephrin type-A receptor 5 (Homo sapiens), sequence (P54756 whole entry): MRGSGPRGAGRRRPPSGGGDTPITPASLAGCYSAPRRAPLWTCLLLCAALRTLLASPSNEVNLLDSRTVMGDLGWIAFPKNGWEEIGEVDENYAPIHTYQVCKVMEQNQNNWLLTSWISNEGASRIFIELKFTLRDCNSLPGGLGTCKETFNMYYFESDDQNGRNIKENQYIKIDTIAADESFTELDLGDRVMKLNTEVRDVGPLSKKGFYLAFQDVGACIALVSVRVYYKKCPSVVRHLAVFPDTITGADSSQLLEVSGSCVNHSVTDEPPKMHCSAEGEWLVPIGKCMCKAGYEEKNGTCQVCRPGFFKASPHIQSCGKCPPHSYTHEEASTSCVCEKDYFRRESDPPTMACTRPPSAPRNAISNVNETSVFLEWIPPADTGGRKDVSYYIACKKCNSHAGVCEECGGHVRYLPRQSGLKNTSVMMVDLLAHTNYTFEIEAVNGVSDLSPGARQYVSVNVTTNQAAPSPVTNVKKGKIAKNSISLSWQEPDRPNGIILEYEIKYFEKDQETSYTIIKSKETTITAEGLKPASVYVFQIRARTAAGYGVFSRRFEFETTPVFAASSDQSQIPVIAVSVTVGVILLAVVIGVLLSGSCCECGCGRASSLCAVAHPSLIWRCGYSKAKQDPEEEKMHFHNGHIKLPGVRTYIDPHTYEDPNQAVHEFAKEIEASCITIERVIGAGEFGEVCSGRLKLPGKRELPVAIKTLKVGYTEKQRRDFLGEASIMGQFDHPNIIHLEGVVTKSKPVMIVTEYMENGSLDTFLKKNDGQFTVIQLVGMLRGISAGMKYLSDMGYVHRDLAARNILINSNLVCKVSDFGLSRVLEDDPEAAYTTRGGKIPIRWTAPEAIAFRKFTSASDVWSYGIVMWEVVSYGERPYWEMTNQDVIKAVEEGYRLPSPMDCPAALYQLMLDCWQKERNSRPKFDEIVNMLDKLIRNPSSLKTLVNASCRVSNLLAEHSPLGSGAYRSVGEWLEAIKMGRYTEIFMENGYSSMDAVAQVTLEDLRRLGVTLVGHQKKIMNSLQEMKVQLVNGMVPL

Row | Compound | residual activity [1] | residual activity [2] | residual activity [3] | residual activity [4] | residual activity [5] | residual activity [6] | residual activity [7] | residual activity [8] | residual activity [9] | residual activity [10]
1 | COc1cc2c(Oc3ccc(-c4nc5ccccc5s4)cc3)ncnc2cc1OCCCN1CCN(C)CC1 | 75% | 146% | 97% | 103% | 86% | 101% | 115% | 74% | 96% | 91%
2 | COc1cc2c(Oc3ccc(-c4nc5ccccc5s4)cc3)ncnc2cc1OCCCN1CCCC1 | 89% | 136% | 109% | 119% | 86% | 93% | 82% | 90% | 83% | 93%
3 | COc1cc2c(Oc3ccc(-c4nc5ccccc5s4)cc3F)ncnc2cc1OCCCN1CCN(C)CC1 | 74% | 128% | 110% | 95% | 94% | 92% | 117% | 72% | 79% | 94%

Source: ChEMBL document CHEMBL1152560, “Substituted 2-arylbenzothiazoles as kinase inhibitors: hit-to-lead optimization” (Bioorg Med Chem, 2009)
